In the supplement of paper PMC10307832:

Tests used:
Assay in all cases: relative viability (nuclei count vs DMSO), 5 days (fraction); higher = more cells survive
Tosedostat + Palbociclib = compound: CC(C)C[C@@H](C(=O)N[C@H](C(=O)OC1CCCC1)c1ccccc1)[C@H](O)C(=O)NO [Tosedostat] + CC(=O)c1c(C)c2cnc(Nc3ccc(N4CCNCC4)cn3)nc2n(C2CCCC2)c1=O [Palbociclib] (partner 0.5 µM)
Summary of the method: (§1)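 Lung cancer cell lines were pin-tool dosed in 1536-well plates on the day after seeding, with either a lone drug or a fixed anchor-drug dose plus five library-drug doses (not always all listed) in √10 steps. Nuclei were counted on 4× images after 5 days. Relative viability is the ratio of treated-well to vehicle-well nuclei counts, with each value a median of duplicate plates.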

Tosedostat + Navitoclax = compound: CC(C)C[C@@H](C(=O)N[C@H](C(=O)OC1CCCC1)c1ccccc1)[C@H](O)C(=O)NO [Tosedostat] + CC1(C)CCC(c2ccc(Cl)cc2)=C(CN2CCN(c3ccc(C(=O)NS(=O)(=O)c4ccc(N[C@H](CCN5CCOCC5)CSc5ccccc5)c(S(=O)(=O)C(F)(F)F)c4)cc3)CC2)C1 [Navitoclax] (partner 0.5 µM)
Summary of the method: as §1

[1] = compound: CC1=NN=C(O1)C2=NN=C(C=C2)N3CCC(CC3)OC4=C(C=CC(=C4)F)Cl + C[C@@H](Oc1cc(-c2cnn(C3CCNCC3)c2)cnc1N)c1c(Cl)ccc(F)c1Cl [Crizotinib] (partner 1 µM)
Summary of the method: as §1

[2] = compound: CC1=NN=C(O1)C2=NN=C(C=C2)N3CCC(CC3)OC4=C(C=CC(=C4)F)Cl + C[C@]1(O)C[C@@H](c2nc(-c3ccc4ccc(-c5ccccc5)nc4c3)c3c(N)nccn32)C1 [Linsitinib] (partner 1 µM)
Summary of the method: as §1

| Cell Line | relative viability (Tosedostat + Palbociclib; first compound 0.02 µM) | relative viability (Tosedostat + Palbociclib; first compound 0.06325 µM) | relative viability (Tosedostat + Palbociclib; first compound 0.2 µM) | relative viability (Tosedostat + Palbociclib; first compound 0.6325 µM) | relative viability (Tosedostat + Palbociclib; first compound 2 µM) | relative viability (Tosedostat + Navitoclax; first compound 0.02 µM) | relative viability (Tosedostat + Navitoclax; first compound 0.06325 µM) | relative viability (Tosedostat + Navitoclax; first compound 0.2 µM) | relative viability (Tosedostat + Navitoclax; first compound 0.6325 µM) | relative viability (Tosedostat + Navitoclax; first compound 2 µM) | relative viability ([1]; first compound 0.253 µM) | relative viability ([1]; first compound 0.8 µM) | relative viability ([1]; first compound 2.53 µM) | relative viability ([1]; first compound 8 µM) | relative viability ([2]; first compound 0.253 µM) | relative viability ([2]; first compound 0.8 µM) | relative viability ([2]; first compound 2.53 µM) | relative viability ([2]; first compound 8 µM) |
| --- | --- | --- | --- | --- | --- | --- | --- | --- | --- | --- | --- | --- | --- | --- | --- | --- | --- | --- |
| NCI-H838 | 0.243 | 0.219 | 0.216 | 0.261 | 0.256 | 1.23 | 1.16 | 1.2 | 1.33 | 1.46 | 0.643 | 0.679 | 0.731 | 0.683 | 0.919 | 0.872 | 0.93 | 0.856 |
| NCI-H1355 | 0.351 | 0.399 | 0.384 | 0.403 | 0.374 | 0.766 | 0.795 | 1.05 | 0.979 | 0.803 |  |  | 0.985 | 0.959 |  |  | 0.806 | 0.66 |
| NCI-H1437 | 0.355 | 0.32 | 0.357 | 0.353 | 0.38 | 1.13 | 1.09 | 1.15 | 1.09 | 0.99 | 0.605 | 0.506 | 0.55 | 0.535 | 0.552 | 0.644 | 0.689 | 0.487 |
| NCI-H1651 | 0.528 | 0.525 | 0.511 | 0.553 | 0.535 | 1.03 | 0.885 | 1.28 | 1.07 | 1 | 0.753 | 0.659 | 0.656 | 0.669 | 0.857 | 0.873 | 0.807 | 0.801 |
| NCI-H1666 | 0.589 | 0.696 | 0.61 | 0.601 | 0.657 | 0.864 | 0.946 | 0.98 | 1.39 | 1.05 | 0.612 | 0.621 | 0.636 | 0.629 | 0.589 | 0.725 | 0.791 | 0.656 |
| NCI-H1734 | 0.367 | 0.372 | 0.354 | 0.313 | 0.265 | 0.833 | 0.801 | 0.789 | 0.735 | 0.683 | 0.652 | 0.688 | 0.62 | 0.626 | 0.863 | 0.783 | 0.814 | 0.601 |
| NCI-H1755 | 0.472 | 0.47 | 0.465 | 0.503 | 0.423 | 1.05 | 1.05 | 1.01 | 0.931 | 0.958 | 0.578 | 0.576 | 0.619 | 0.512 | 0.661 | 0.754 | 0.728 | 0.683 |
| NCI-H1792 | 0.659 | 0.634 | 0.612 | 0.683 | 0.695 | 0.63 | 0.839 | 0.651 | 0.652 | 0.567 | 0.414 | 0.447 | 0.378 | 0.451 | 0.324 | 0.409 | 0.36 | 0.401 |
| NCI-H1915 | 0.41 | 0.512 | 0.554 | 0.523 | 0.495 | 0.801 | 0.775 | 0.783 | 0.743 | 0.711 | 0.445 | 0.312 | 0.311 | 0.253 | 0.582 | 0.51 | 0.45 | 0.376 |
